These results are taken from ChEMBL document CHEMBL1148042, “Novel bioactive diterpenoids from Aframomum aulacocarpos” (1994).

Holding throughout (type): functional
In test [1] the test system is Rhizomucor miehei. Briefly: Antifungal activity against Mucor miehei by plate diffusion assay.
Test [2] concerns Bacillus subtilis. Briefly: Antibacterial activity against Bacillus subtilis ATCC 6633 by serial dilution assay.
For test [3], the system named is L1210. Nature of the test: Cytotoxicity against mouse L1210 cells. To be noted: read-out: ED50 (the source's name).

Structures are written as SMILES. In brackets after ≈: the same amount, converted by molar mass.

As to `COC(=O)/C(=C/C[C@H]1[C@]2(CO2)C[C@@H](O)[C@H]2C(C)(C)[C@@H](O)CC[C@@]21C)C1CO1` (stereo partly drawn) [AULACOCARPIN B], the MIC in test [1] is 50 µg/mL (≈ 131 µM); in test [2], 25 µg/mL (≈ 65.7 µM). In addition, the EC50 in test [3] was 25 µg/mL (≈ 65.7 µM).
Consider `COC(=O)/C(=C/C[C@H]1[C@@]2(CC[C@H]3C(C)(C)[C@@H](O)CC[C@@]31C)CO2)C1CO1` (stereo partly drawn) [AULACOCARPINE A], for which the values for the MIC in test [1] and in test [2] were 50 µg/mL (≈ 137 µM) and 25 µg/mL (≈ 68.6 µM), respectively.
Regarding `CC1(C)[C@@H](O)CC[C@]2(C)C3=C(CC[C@@H]12)CO[C@@H](C1=CCOC1=O)C3` [AULACOCARPINOLIDE], the MIC came out at 50 µg/mL (≈ 150 µM) in test [1] and 25 µg/mL (≈ 75.2 µM) in test [2]. The EC50 in test [3] worked out at 12.5 µg/mL (≈ 37.6 µM).
